Measurements published in patent US12662460B2, “Compositions for use for the inhibition of dihydroorotate dehydrogenase” (OHIO STATE INNOVATION FOUNDATION, priority 2019, dated 2026).

Key:
recombinant human DHODH = target: T1, recombinant human DHODH (Homo sapiens, UniProt Q02127); assay: DHODH enzymatic assay (DCIP reduction); assay type: biochemical; conditions: recombinant human enzyme, 25° C.; read-out: h-DHODH IC50
T1 construct: made in house
Procedure: DHODH Enzymatic Assay: DHODH activity was determined at 25° C. following the reduction of 2,6-dichloroindophenol sodium salt (DCIP) at 600 nm (ε=18 800 M^−1 cm^−1) on a spectrophotometer. The reaction medium used contained 50 mM Tris-HCl, pH 8.0, 0.1% Triton X-100, 0.1 mM LDHO, 0.025 mM CoQ1, and 0.06 mM DCIP. The reaction was started by addition of the enzyme. The inhibitory potency of the compounds was evaluated by measuring the initial velocity of the reaction either in the absence or in the presence of the compounds at the indicated concentrations. The DHODH enzyme used was the recombinant human enzyme prepared as previously described (Hëlène Munier-Lehmann, et al., J. Med. Chem. 2015, 58:860-877).

OCI-AML3 = assay: MTS assay for cell growth/viability, OCI-AML3; assay type: cell-based; conditions: Homo sapiens, OCI-AML-3, 96 hours
Procedure: (§1) MTS assay for cell growth/viability: Mitochondrial activity was measured to determine cell proliferation using an MTS assay ([…]). Metabolically active cells convert MTS tetrazolium salt into a purple formazan product that is soluble in tissue culture medium. The amount of formazan measured at 490 nm absorbance is proportional to the number of proliferating cells. MTS assays in AML cell lines were carried out with 20K cells plated per well in 96-well plates with Cpd3 or brequinar in a dose series ranging from 0.0001 to 10 μM. Triplicate wells were set up for each condition. At 96 hours, the MTS reagent was added and after approximately 4 hours the plates were read in a spectrophotometer.
(§2) Biological Activity. Cell proliferation assays were carried out using the MTS assay described herein using two AML cell lines (i.e., MOLM13 and OCI-AML3) with varied genetic backgrounds. The assays were carried out in a blinded fashion.

MOLM13 = assay: MTS assay for cell growth/viability, MOLM13; assay type: cell-based; conditions: Homo sapiens, MOLM-13, 96 hours
Procedure: as §1, §2

T1 sequence (Q02127 whole entry): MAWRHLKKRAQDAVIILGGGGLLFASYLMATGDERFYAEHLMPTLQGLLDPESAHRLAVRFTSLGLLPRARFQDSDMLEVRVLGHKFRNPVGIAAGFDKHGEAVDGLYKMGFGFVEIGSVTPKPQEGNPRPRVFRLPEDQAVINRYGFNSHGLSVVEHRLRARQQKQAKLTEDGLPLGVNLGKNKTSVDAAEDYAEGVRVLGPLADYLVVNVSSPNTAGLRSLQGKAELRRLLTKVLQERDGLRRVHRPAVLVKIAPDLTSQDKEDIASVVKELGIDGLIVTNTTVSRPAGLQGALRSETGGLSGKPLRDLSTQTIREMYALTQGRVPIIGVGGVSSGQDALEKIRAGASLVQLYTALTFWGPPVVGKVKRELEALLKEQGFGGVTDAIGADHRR

Row | IC50 (recombinant human DHODH) [µM] | IC50 (OCI-AML3) [µM] | IC50 (MOLM13) [µM] | Structure (SMILES)
1 | 0.628 | 4.32 | 5.35 | CCOc1ccc(-c2ccc(-c3cc(C(=O)O)c4cc(F)ccc4n3)cn2)cc1 [Cpd1, 2-(6-(4-ethoxyphenyl)pyridin-3-yl)-6-fluoroquinoline-4-carboxylic acid]
2 | – | 3.64 | – | CCOc1ccc(-c2cnc(-c3cc(C(=O)O)c4cc(F)ccc4n3)nc2)cc1 [Cpd3, 2-(5-(4-ethoxyphenyl)pyrimidin-2-yl)-6-fluoroquinoline-4-carboxylic acid]
3 | 4.75 | > 10 | – | CCOc1ccc(-c2ccc(-c3cc(C(=O)O)c4cc(F)ccc4n3)nn2)cc1 [Cpd5, 2-(6-(4-ethoxyphenyl)pyridazin-3-yl)-6-fluoroquinoline-4-carboxylic acid]
4 | 0.605 | > 10 | – | CCOc1cccc(-c2ccc(-c3cc(C(=O)O)c4cc(F)ccc4n3)nn2)c1 [Cpd7, 2-(6-(3-ethoxyphenyl)pyridazin-3-yl)-6-fluoroquinoline-4-carboxylic acid]

Continued, compound first:

Row | Structure (SMILES) | IC50 (recombinant human DHODH) [µM] | IC50 (OCI-AML3) [µM] | IC50 (MOLM13) [µM]
5 | CCOc1ccc(-c2ccc(-c3cc(C(=O)O)c4cc(F)ccc4n3)nc2)cc1 [Cpd2, 2-(5-(4-ethoxyphenyl)pyridin-2-yl)-6-fluoroquinoline-4-carboxylic acid] | 0.317 | 0.709 | 0.571
6 | CCOc1ccc(-c2cnc(-c3cc(C(=O)O)c4cc(F)ccc4n3)cn2)cc1 [Cpd4, 2-(5-(4-ethoxyphenyl)pyrazin-2-yl)-6-fluoroquinoline-4-carboxylic acid] | 0.5 | 2.1 | –
7 | CCOc1cccc(-c2cnc(-c3cc(C(=O)O)c4cc(F)ccc4n3)nc2)c1 [Cpd6, 2-(5-(3-ethoxyphenyl)pyrimidin-2-yl)-6-fluoroquinoline-4-carboxylic acid] | 1.82 | > 10 | –
